Calls of active or inactive are those of the source.
What was measured:
[1] = target: T1, E3 ubiquitin-protein ligase XIAP (Homo sapiens, UniProt P98170); experiment: Counter Screen using XIAP-Bir3 for Chemical Antagonists of Bir1/2 domains of IAP-family anti-apoptotic proteins. [Related pubchem assays (depositor defined):AID1018, AID1449, AID1514, AID1638, AID1749, AID1750, AID488957, AID488963]
[2] = target: T1, E3 ubiquitin-protein ligase XIAP; experiment: XIAP antagonists, biochemical, IAP family, fluorescence polarization (AID 1018); format: functional
[3] = target: Intestinal-type alkaline phosphatase (Homo sapiens, UniProt P09923); experiment: Dose Response confirmation of uHTS hits from a small molecule inhibitors of human intestinal alkaline phosphatase via a luminescent assay. [Related pubchem assays (depositor defined):AID2544, AID2574]; format: functional
[4] = system: HEK293; experiment: cells; format: functional, cell-based; conditions: Homo sapiens
[5] = system: HEK293; experiment: NOD1 signaling inhibitors, primary screen, cell-based, luminescence, uHTS (AID 1578); format: functional; conditions: Homo sapiens
[6] = target: Nucleotide-binding oligomerization domain-containing protein 2 (Homo sapiens, UniProt Q9HC29); experiment: NOD2 signaling inhibitors, cell-based, luminescence, uHTS, HEK293 (AID 1566); format: functional
[7] = system: HEK293; experiment: cells; format: functional, cell-based; conditions: Homo sapiens; remark: listed apart in the source
[8] = system: Vero; experiment: Vero cell cytotoxicity, cytotoxicity control for flavivirus capping enzyme inhibitors (AID 588742); format: functional; conditions: Chlorocebus sabaeus
[9] = system: HEK293; experiment: NOD2 signaling inhibitors in MDP-stimulated cells, cell-based, uHTS, luminescence (AID 2001); format: functional; conditions: Homo sapiens
[10] = target: Nonstructural protein 1 (Influenza A virus, UniProt Q194T2); format: functional, Influenza A virus (A/California/07/2009(H1N1))
[11] = target: Glyceraldehyde-3-phosphate dehydrogenase (Homo sapiens, UniProt P04406)
[12] = target: T2, Alkaline phosphatase, tissue-nonspecific isozyme (Homo sapiens, UniProt P05186); experiment: human TNAP enzyme inhibitors, SAR follow-up, biochemical, luminescent, dose response (AID 1056)
T2 sequence (P05186 whole entry): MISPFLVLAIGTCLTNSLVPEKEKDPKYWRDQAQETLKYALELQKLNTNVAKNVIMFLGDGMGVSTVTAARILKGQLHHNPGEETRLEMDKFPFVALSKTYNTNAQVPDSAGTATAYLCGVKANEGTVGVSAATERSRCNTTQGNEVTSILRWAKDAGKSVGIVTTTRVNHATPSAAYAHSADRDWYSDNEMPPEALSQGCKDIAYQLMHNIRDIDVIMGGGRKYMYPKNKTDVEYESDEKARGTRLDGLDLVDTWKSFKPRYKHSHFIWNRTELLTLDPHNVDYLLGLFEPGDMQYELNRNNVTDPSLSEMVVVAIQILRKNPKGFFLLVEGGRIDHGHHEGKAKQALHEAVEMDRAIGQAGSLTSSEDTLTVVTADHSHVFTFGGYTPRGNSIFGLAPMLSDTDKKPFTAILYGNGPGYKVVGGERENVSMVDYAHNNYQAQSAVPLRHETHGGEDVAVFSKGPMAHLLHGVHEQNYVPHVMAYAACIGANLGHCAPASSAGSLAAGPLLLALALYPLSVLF

[13] = Luminescence Cell-Based Dose Response HTS to Identify Activators of Luciferase Translation or Activity in H4-C Neuroglioblastoma Cells. [Related pubchem assays: 1829 (Project Summary), 1814 (Primary HTS)]; format: functional
[14] = Luminescence Cell-Based Dose Response HTS to Identify Activators of 5'UTR Stem-Loop Driven Prion Protein mRNA Translation in H4-C Neuroglioblastoma Cells. [Related pubchem assays: 1829 (Project Summary), 1814 (Primary HTS)]; format: functional
[15] = Luminescence Cell-Based Dose Response HTS to Identify Inhibitors of Luciferase Translation or Activity in H4-C Neuroglioblastoma Cells. [Related pubchem assays: 1813 (Primary HTS), 1827 (Project Summary)]; format: functional
[16] = Luminescence Cell-Based Dose Confirmation HTS to Identify Inhibitors of 5'UTR Stem-Loop Driven Alpha-Synuclein mRNA Translation in H4 Neuroglioblastoma Cells. [Related pubchem assays: 1827 (Project Summary), 1813 (Primary HTS)]; format: functional
[17] = Luminescence Cell-Based Dose HTS Response to Identify Inhibitors of 5'UTR Stem-Loop Driven Prion Protein mRNA Translation in H4-C Neuroglioblastoma Cells. [Related pubchem assays (depositor defined):AID1814, AID1827]; format: functional
[18] = Luminescence Cell-Based Dose Response HTS to Identify Inhibitors of 5'UTR Stem-Loop Driven Prion Protein mRNA Translation in H4 Neuroglioblastoma Cells. [Related pubchem assays: 1827 (Project Summary), 1813 (Primary HTS)]; format: functional
[19] = inhibitors of SNCA 5'UTR-driven reporter translation, confirmation, H4 neuroglioma cells, luminescence (AID 1988); format: functional, cell-based
[20] = Luminescence Cell-Based Dose Retest to Confirm Activators of 5'UTR Stem-Loop Driven Alpha-Synuclein mRNA Translation in H4 Neuroglioblastoma Cells. [Related pubchem assays (depositor defined):AID1813, AID1829]; format: functional
[21] = inhibitors of firefly luciferase expression or activity, dose response, H4 neuroglioma cells, luminescence (AID 1990); format: functional, cell-based
[22] = target: G-protein coupled receptor 55 (Homo sapiens, UniProt Q9Y2T6); experiment: GPR55 agonists via beta-arrestin recruitment, primary screen, imaging, U2OS cells, beta-arrestin-GFP redistribution (AID 1961); format: functional
[23] = cytotoxicity toward NIH3T3 fibroblasts, dose response, counter-screen, cell-based, ATP luminescence, mouse fibroblasts (AID 2010); format: functional;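 further: cells exposed to compound for about 90 hours before reading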
[24] = inhibitors of intracellular T. cruzi replication, confirmation, NIH3T3 host cells, beta-gal luminescence (AID 2044); format: functional, cell-based;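 further: intracellular parasites grown in NIH/3T3 mouse fibroblasts as host cells; luminescent beta-galactosidase reporter signal from transgenic T. cruzi replicating inside host cells; inhibitors lower the luminescence signal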
[25] = cells; format: functional
[26] = Vero E6 cell cytotoxicity, dose response, cytotoxicity control for non-replicating M. tuberculosis project, secondary assay (AID 492998); format: functional, VeroE6; conditions: Vero C1008
[27] = THP-1 cell cytotoxicity, dose response, cytotoxicity control for non-replicating M. tuberculosis project (AID 489025); format: functional
[28] = HepG2 cell cytotoxicity, dose response, cytotoxicity control for non-replicating M. tuberculosis project (AID 489018); format: functional; conditions: Mycobacterium tuberculosis
[29] = microbe, parasite or virus in culture; format: functional; conditions: Mycobacterium tuberculosis
[30] = Luminescence Cell-Based Dose Retest to Confirm Inhibitors of Cancer Stem Cells. [Related pubchem assays (depositor defined):AID2717, AID2721]; format: functional; conditions: Homo sapiens
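Wherever AC50 is given: cells exposed to compound for roughly 70 hours or longer before luminescence read.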

T1 sequence (P98170 whole entry): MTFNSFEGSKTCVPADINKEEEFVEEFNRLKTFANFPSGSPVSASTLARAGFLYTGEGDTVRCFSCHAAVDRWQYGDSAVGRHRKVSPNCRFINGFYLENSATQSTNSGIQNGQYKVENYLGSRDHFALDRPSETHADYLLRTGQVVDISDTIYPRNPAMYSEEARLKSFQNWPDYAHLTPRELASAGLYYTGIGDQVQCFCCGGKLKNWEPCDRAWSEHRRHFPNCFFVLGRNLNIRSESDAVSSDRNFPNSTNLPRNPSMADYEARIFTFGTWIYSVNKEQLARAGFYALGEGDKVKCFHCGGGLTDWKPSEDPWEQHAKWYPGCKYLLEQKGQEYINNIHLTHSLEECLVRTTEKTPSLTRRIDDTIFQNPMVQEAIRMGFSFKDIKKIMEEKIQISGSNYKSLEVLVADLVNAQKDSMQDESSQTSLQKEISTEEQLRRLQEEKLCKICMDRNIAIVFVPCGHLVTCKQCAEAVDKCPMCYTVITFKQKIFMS
Sequence of Glyceraldehyde-3-phosphate dehydrogenase (P04406 whole entry): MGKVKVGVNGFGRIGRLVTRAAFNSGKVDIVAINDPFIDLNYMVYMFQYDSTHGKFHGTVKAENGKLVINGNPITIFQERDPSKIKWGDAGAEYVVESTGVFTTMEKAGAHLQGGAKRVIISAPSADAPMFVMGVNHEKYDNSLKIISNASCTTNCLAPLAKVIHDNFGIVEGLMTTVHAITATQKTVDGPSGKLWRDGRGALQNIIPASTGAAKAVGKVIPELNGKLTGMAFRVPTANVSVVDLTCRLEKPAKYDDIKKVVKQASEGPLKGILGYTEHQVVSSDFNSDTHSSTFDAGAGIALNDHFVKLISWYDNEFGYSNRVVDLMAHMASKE
Sequence of G-protein coupled receptor 55 (Q9Y2T6 whole entry): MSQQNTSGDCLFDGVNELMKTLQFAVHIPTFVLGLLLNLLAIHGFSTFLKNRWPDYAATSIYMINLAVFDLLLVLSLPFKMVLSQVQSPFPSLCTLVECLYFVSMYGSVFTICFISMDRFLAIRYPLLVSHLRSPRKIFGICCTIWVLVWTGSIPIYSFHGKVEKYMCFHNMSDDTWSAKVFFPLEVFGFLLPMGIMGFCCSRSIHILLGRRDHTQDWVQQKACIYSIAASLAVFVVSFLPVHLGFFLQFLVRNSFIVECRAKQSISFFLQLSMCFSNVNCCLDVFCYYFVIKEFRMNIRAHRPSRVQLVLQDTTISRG
Sequence of Nonstructural protein 1 (Q194T2 whole entry): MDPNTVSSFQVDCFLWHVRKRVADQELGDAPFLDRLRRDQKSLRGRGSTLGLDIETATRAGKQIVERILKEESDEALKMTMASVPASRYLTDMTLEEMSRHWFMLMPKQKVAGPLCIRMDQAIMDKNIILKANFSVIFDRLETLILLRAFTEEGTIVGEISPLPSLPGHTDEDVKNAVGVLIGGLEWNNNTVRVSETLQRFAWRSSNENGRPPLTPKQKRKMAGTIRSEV
Sequence of Nucleotide-binding oligomerization domain-containing protein 2 (Q9HC29 whole entry, the tested form may be a part): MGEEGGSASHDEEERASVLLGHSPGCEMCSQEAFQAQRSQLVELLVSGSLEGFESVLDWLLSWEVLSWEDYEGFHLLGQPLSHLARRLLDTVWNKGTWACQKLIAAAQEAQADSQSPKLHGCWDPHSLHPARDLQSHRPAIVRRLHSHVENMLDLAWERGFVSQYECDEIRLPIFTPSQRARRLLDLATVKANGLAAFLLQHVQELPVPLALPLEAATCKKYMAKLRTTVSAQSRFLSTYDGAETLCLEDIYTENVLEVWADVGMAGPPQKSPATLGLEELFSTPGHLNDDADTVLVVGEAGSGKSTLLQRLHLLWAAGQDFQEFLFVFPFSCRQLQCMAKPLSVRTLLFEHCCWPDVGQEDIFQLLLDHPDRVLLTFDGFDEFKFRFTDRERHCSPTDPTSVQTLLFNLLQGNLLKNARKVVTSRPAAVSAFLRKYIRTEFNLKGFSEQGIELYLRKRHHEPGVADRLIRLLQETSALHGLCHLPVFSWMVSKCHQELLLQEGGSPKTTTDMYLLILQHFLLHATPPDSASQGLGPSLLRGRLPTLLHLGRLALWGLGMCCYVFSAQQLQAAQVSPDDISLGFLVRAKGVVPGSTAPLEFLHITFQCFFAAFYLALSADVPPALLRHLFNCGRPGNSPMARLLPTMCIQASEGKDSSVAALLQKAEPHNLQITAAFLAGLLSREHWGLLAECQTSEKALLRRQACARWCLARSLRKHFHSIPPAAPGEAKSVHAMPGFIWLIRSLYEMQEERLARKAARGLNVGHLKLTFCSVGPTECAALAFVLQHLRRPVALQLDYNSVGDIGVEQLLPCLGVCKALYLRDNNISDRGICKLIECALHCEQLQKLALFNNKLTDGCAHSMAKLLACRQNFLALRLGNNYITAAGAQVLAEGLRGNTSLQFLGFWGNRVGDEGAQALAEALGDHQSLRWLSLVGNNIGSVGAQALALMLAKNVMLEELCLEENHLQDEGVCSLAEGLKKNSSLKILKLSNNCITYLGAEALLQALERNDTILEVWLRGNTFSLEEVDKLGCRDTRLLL
Sequence of Intestinal-type alkaline phosphatase (P09923 whole entry): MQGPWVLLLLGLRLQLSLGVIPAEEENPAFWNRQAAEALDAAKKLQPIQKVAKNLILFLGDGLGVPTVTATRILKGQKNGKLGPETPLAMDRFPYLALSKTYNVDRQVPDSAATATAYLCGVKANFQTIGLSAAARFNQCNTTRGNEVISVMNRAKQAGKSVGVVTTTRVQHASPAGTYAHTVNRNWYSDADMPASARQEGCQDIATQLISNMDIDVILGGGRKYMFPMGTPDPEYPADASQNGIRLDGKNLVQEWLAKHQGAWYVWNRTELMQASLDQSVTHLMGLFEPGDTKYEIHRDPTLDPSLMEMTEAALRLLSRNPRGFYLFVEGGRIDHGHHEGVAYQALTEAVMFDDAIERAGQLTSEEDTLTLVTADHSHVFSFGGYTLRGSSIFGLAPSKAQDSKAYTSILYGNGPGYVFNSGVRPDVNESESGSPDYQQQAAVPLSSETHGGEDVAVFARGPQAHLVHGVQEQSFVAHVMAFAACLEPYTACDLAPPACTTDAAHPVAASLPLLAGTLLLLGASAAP

For `COc1cc(NC(=O)C2CCCN2S(=O)(=O)c2cccc3cccnc23)cc(OC)c1OC` (stereo not given), the IC50 [1] was > 100 µM (inactive) and the IC50 [2] was > 100 µM (not active).
In the case of `CCCCOc1cccc(C2C(C(=O)c3ccc4c(c3)OCCO4)=C(O)C(=O)N2CCN2CCOCC2)c1` (stereo not given), the IC50 [3] is reported as > 100 µM (inactive).
With `O=C1/C(=C\c2cccc([N+](=O)[O-])c2O)SC(=S)N1Cc1ccccc1` the IC50 [4] was 18.9 µM (active), the EC50 [5] was 5.91 µM (active) and the EC50 [6] was 9.56 µM (active). For the same compound, the IC50 [7] was > 20 µM (inactive), the CC50 [8] was 22.8 µM (active) and the IC50 [9] was 4.7 µM (inactive). For the same compound, the IC50 [10] was 16.4 µM (active).
For `CCOc1ccc(-c2cc(C(=O)O)[nH]n2)cc1`, the IC50 [11] was > 100 µM (not active) and the IC50 [12] was 19.8 µM (active).
With `Cc1cccc(N(C)S(=O)(=O)c2ccc(-c3cc(C)no3)s2)c1` the EC50 [13] was 6.81 µM (inconclusive), the EC50 [14] was 1.15 µM (inconclusive) and the EC50 [15] was 6.81 µM (active). The EC50 [16] was 33.4 µM (active), the EC50 [17] was 1.15 µM (active) and the EC50 [18] was 10.4 µM (active). The EC50 [19] was 0.155 µM (active), the EC50 [20] was 33.4 µM (inconclusive) and the EC50 [21] was 9.86 µM (active).
With `O=C(Nc1ccc(Cl)c(Cl)c1)N(Cc1cccnc1)Cc1ccco1` the EC50 [22] was > 32 µM (inactive), the EC50 [23] was > 60 µM (not active) and the EC50 [24] was 0.552 µM (active).
For `CN1CCN(C2Cc3ccccc3Sc3cc(C(F)(F)F)ccc32)CC1` (stereo not given), the IC50 [25] was 14.9 µM (active), the CC50 [26] was > 20 µM (active) and the CC50 [27] was 17.4 µM (active). For the same compound, the CC50 [28] was > 20 µM (active), the CC50 [29] was 17.9 µM (active) and the AC50 [30] was 6.72 µM (active).

From ChEMBL document CHEMBL1201862, “PubChem BioAssay data set” (2004)
